Among the test systems are MDA-MB-435; SNB-19 CNS; HT29 colon; UO-31 renal; SK-MEL-5 melanoma; M14 melanoma; LOX IMVI melanoma; COLO 205 colon; SF-295 CNS; UACC-62 melanoma.
Holding throughout (experiment): NCI tumour cell line growth inhibition, 48 h

“And” between values parts separate entries of the source, which are not always exact repeats. Equal entries are not always repeated.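 Following 48 hours of exposure in 96-well plates, responses at five concentrations were used to interpolate endpoints linearly. Here, GI50 denotes the concentration required for 50% inhibition of growth. Definition used: TGI = concentration required for complete inhibition of growth.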

On to `C=C(Br)COc1ccc2c(C)cc(=O)oc2c1`, for which the TGI is above 100 µM in the experiment on MDA-MB-435; above 100 µM in the experiment with SNB-19 CNS; above 100 µM with HT29 colon; above 100 µM in the experiment on UO-31 renal; 37.4 µM in the experiment with SK-MEL-5 melanoma; above 100 µM in the experiment on M14 melanoma. The results for the TGI in the experiment with LOX IMVI melanoma and in the experiment on COLO 205 colon were above 100 µM and 16.7 µM, respectively.
Regarding `COc1cc(N2CCC(N)CC2)ccc1Nc1ncc(Cl)c(-c2c[nH]c3ccccc23)n1`, the GI50 was 1.54 µM with SF-295 CNS; 0.266 µM with MDA-MB-435; 1.38 µM with SNB-19 CNS; 0.0343 µM in the experiment on HT29 colon; 0.339 µM in the experiment with UO-31 renal; 1.49 µM in the experiment on SK-MEL-5 melanoma. The GI50 with M14 melanoma was 0.373 µM; in the experiment with LOX IMVI melanoma it was 0.226 µM; with COLO 205 colon it was 0.0248 µM. The TGI in the experiment with SF-295 CNS was 3.31 µM; in the experiment on MDA-MB-435 it was 1.77 µM; with SNB-19 CNS, 4.19 µM; in the experiment on HT29 colon, 1.43 µM; with UO-31 renal, 2.12 µM; in the experiment with SK-MEL-5 melanoma it was 2.84 µM. The figures for the TGI with M14 melanoma, in the experiment on LOX IMVI melanoma and in the experiment with COLO 205 colon were 1.73 µM, 1.58 µM and 0.269 µM, respectively.
In the case of `COC(=O)c1c2c(c(C)[n+]([O-])c1C)C(=O)C(NCc1ccc(O)cc1)=CC2=O`, the GI50 in the experiment with SF-295 CNS is 1.67 µM; with MDA-MB-435 it was 1.68 µM; with HT29 colon, 0.715 µM; with UO-31 renal, 1.53 µM; in the experiment with SK-MEL-5 melanoma it was 1.27 µM; in the experiment with M14 melanoma it was 1.55 µM. Besides, the GI50 was 1.36 µM in the experiment with UACC-62 melanoma, 0.938 µM in the experiment on LOX IMVI melanoma and 0.579 µM with COLO 205 colon. Moreover, the TGI in the experiment on SF-295 CNS was found to be 3.17 µM; with MDA-MB-435 it was 3.19 µM; in the experiment with HT29 colon, 4.84 µM; with UO-31 renal, 3.06 µM; in the experiment with SK-MEL-5 melanoma it was 2.59 µM; in the experiment on M14 melanoma, 3.12 µM. The TGI in the experiment on UACC-62 melanoma was 2.97 µM; in the experiment on LOX IMVI melanoma, 2.24 µM; in the experiment on COLO 205 colon, 2.19 µM.
Regarding `O=C(Nc1cccc(-n2cc(-c3ccncc3)c(-c3ccc(Cl)c(O)c3)n2)c1)Nc1ccc(Cl)c(Cl)c1`, the GI50 is 1.1 µM in the experiment with MDA-MB-435; 1.46 µM in the experiment on SNB-19 CNS; 4.89 µM in the experiment on HT29 colon; 1.25 µM in the experiment with UO-31 renal; 0.57 µM in the experiment on SK-MEL-5 melanoma; 1.18 µM in the experiment with M14 melanoma. Further, the GI50 in the experiment on UACC-62 melanoma was 1.11 µM; in the experiment with LOX IMVI melanoma, 0.939 µM; in the experiment on COLO 205 colon, 3.96 µM. The TGI was 6.05 µM in the experiment on MDA-MB-435; above 32.5 µM in the experiment with SNB-19 CNS; above 32.5 µM with HT29 colon; above 32.5 µM in the experiment on UO-31 renal; 1.16 µM in the experiment on SK-MEL-5 melanoma; 6.97 µM in the experiment on M14 melanoma. Besides, the TGI with UACC-62 melanoma came to 5.21 µM; in the experiment on LOX IMVI melanoma it was 3.57 µM; in the experiment with COLO 205 colon it was 9.49 µM.
Regarding `COC(=O)[C@]12CC[C@@H](C)[C@H](C)[C@@H]1C1=CC[C@@H]3[C@@](C)(CC#N)C4=C(C[C@@]3(C)[C@]1(C)CC2)OC[C@]4(C)C=O`, the GI50 with SF-295 CNS is 13.2 µM; with MDA-MB-435 it was 4.39 µM; in the experiment with SNB-19 CNS, 3.77 µM; in the experiment with HT29 colon it was 5.85 µM; with UO-31 renal, 3.07 µM; in the experiment on SK-MEL-5 melanoma, 3.3 µM. For the same molecule, the values for the GI50 in the experiment with M14 melanoma, in the experiment on LOX IMVI melanoma and in the experiment with COLO 205 colon were 3.46 µM, 3.11 µM and 14.4 µM, respectively. Besides, the TGI was 40.6 µM in the experiment with SF-295 CNS; 44.1 µM with MDA-MB-435; above 100 µM in the experiment on SNB-19 CNS; 41.5 µM in the experiment on HT29 colon; 39.5 µM in the experiment on UO-31 renal; 11 µM in the experiment on SK-MEL-5 melanoma. Further, the TGI in the experiment with M14 melanoma was 19.9 µM; with LOX IMVI melanoma, 13.3 µM; in the experiment on COLO 205 colon, 29.6 µM.
Turning to `COC1C(=O)CCC2(CO2)C1(O)C1(C)OC1CC=C(C)C` (stereo unspecified), the TGI with SF-295 CNS is above 100 µM; in the experiment with MDA-MB-435, above 100 µM; with SNB-19 CNS, above 100 µM; with HT29 colon it was above 100 µM; in the experiment on UO-31 renal, above 100 µM; in the experiment on SK-MEL-5 melanoma, 83.9 µM. In addition, the TGI was 53.2 µM in the experiment with M14 melanoma, 80.8 µM in the experiment on UACC-62 melanoma and above 100 µM with COLO 205 colon.
`COc1cc(C)[nH]c(=O)c1CNC(=O)c1c(C)n([C@H](C)C2CCN(CC(F)(F)F)CC2)c2ccccc12`: the GI50 in the experiment with SF-295 CNS was 31.8 µM; with MDA-MB-435, 46 µM; with SNB-19 CNS, 74.5 µM; in the experiment with HT29 colon, 38.5 µM; with UO-31 renal, 28.2 µM; with SK-MEL-5 melanoma it was 19 µM. The GI50 was 67.8 µM with M14 melanoma, 32.5 µM with UACC-62 melanoma and 41.6 µM in the experiment on LOX IMVI melanoma. In addition, the TGI is above 100 µM in the experiment with SF-295 CNS; above 100 µM with MDA-MB-435; above 100 µM in the experiment with SNB-19 CNS; above 100 µM in the experiment with HT29 colon; above 100 µM with UO-31 renal; 54.4 µM with SK-MEL-5 melanoma. Further, the TGI in the experiment on M14 melanoma, with UACC-62 melanoma and in the experiment on LOX IMVI melanoma was above 100 µM throughout.
With `COc1cc(C2CC(c3cccc(Nc4ccnc5cc(Cl)ccc45)c3)=NN2c2ccccc2)cc(OC)c1OC` (stereo unspecified), the GI50 in the experiment on SF-295 CNS was 3.55 µM; in the experiment on MDA-MB-435, 1.47 µM; in the experiment with SNB-19 CNS it was above 100 µM; in the experiment on UO-31 renal, 1.68 µM; in the experiment on SK-MEL-5 melanoma, 4.56 µM; in the experiment with M14 melanoma it was 2.6 µM. The GI50 in the experiment with UACC-62 melanoma was 0.869 µM; in the experiment with LOX IMVI melanoma, 2.3 µM; with COLO 205 colon, 15.7 µM. The TGI is above 100 µM in the experiment with SF-295 CNS; 14.2 µM in the experiment with MDA-MB-435; above 100 µM in the experiment on SNB-19 CNS; above 100 µM with UO-31 renal; 23.8 µM in the experiment with SK-MEL-5 melanoma; above 100 µM in the experiment on M14 melanoma. For the same molecule, the TGI was above 100 µM in the experiment on UACC-62 melanoma, above 100 µM in the experiment on LOX IMVI melanoma and 46.3 µM in the experiment on COLO 205 colon.
On to `CN(C)c1ccc(/C=c2/c3cc(O)ccc3n3c2cc(-c2ccccc2)[n+]3C)cc1`, for which the TGI was above 100 µM in the experiment with SF-295 CNS; 2.29 µM in the experiment with MDA-MB-435; 1.7 µM and 1.47 µM with SNB-19 CNS; 3.86 µM in the experiment with HT29 colon; 31.7 µM in the experiment with UO-31 renal; 2.04 µM in the experiment with SK-MEL-5 melanoma. Besides, the TGI was 2.89 µM in the experiment with M14 melanoma and 2.47 µM in the experiment on LOX IMVI melanoma. Moreover, the values for the GI50 in the experiment on SNB-19 CNS, in the experiment on UO-31 renal and with UACC-62 melanoma were 0.277 µM, 4.45 µM and above 100 µM, respectively.

The values above are taken from PubChem BioAssay (NCI).
